58 compounds from ChEMBL document CHEMBL5303711, “ECBD screening data for assay EOS300108” (2023) can be followed below.

A short description of this data set: Cytotoxicity activity against human HepG2 cells assessed by CellTiter-Glo luminescent cell viability assay. It counts as toxicity, cell-based. The arrangement: assay stage confirmatory assay, source tissue liver. The note with it: HepG2 cells, read-out: IC50 relative.

Active and inactive are the calls of the source. No rule for the calls is given here.

On to `COc1cc2c(NC3CCN(C(C)C)CC3)nc(C3CCCCC3)nc2cc1OCCCN1CCCC1`, for which the CC50 is 2.4 µM (active).
Next, `NCCNS(=O)(=O)c1cccc2cnccc12`: 13.2 µM (inactive); `c1ccc(-c2cn3c(n2)CCc2ccc4cccnc4c2-3)cc1`: 4 µM (active).
With `O=S(=O)(NCCNC/C=C/c1ccc(Br)cc1)c1cccc2cnccc12`, the CC50 was 9.7 µM (active).
`CN(C)S(=O)(=O)c1cccc(-n2sc3ccccc3c2=O)c1`: the CC50 was 9.3 µM (active).
Take `O=C(Oc1c(Cl)cc(Cl)c2cccnc12)c1ccco1`: the CC50 is 8 µM (active).
As for `O=C(Nc1cccnn1)N1CCC(=Cc2cccc(Oc3ccc(C(F)(F)F)cn3)c2)CC1`, the CC50 is 7.5 µM (active).
As for `Cc1ccc(C)c(-n2sc3cc(F)ccc3c2=O)c1`, the CC50 was 6.5 µM (active).
Take `Cn1cc(/C=C2\C(=O)Nc3cccnc32)c2ccccc21`: the CC50 was 8.1 µM (inactive).
As to `Cc1cc(Nc2nc(N[C@@H](C)c3ccc(F)cc3)c(C#N)cc2F)n[nH]1`, the CC50 is 2.7 µM (active).
`NC(=O)c1ccc2[nH]c(-c3ccc(Oc4ccc(Cl)cc4)cc3)nc2c1`: the CC50 is 14.7 µM (inactive).
With `COc1cc(/C=C(\C#N)C(=O)Nc2nnc(C(F)(F)F)s2)ccc1OCc1ccc(C(F)(F)F)cc1C(F)(F)F`, the CC50 is 12 µM (active).
For `CCN(c1nc(N)c(C(=O)NC(=N)N)nc1Cl)C(C)C`, the CC50 is 12.5 µM (active).
With `Cc1sc2c(c1C)C(c1ccc(Cl)cc1)=N[C@@H](CC(=O)OC(C)(C)C)c1nnc(C)n1-2`, the CC50 is 1.2 µM (active).
In the case of `CCCCCCCC(=O)N[C@H](CN1CCCC1)[C@H](O)c1ccc2c(c1)OCCO2`, the CC50 was 15.7 µM (inactive).
For `Cc1c(C(=O)Nc2cccc(C(F)(F)F)c2)cc(-c2ccccc2)n1CCCN1CCOCC1`, the CC50 is 13.9 µM (inactive).
With `CCc1cncnc1N1CCN(Cc2nc3cc(C(F)(F)F)ccc3[nH]2)CC1`, the CC50 was 9.5 µM (active).
As for `COc1ccccc1S(=O)(=O)Nc1ccc2c(c1)CN(C)C(=O)N2`, the CC50 is 3.7 µM (active).
Regarding `CCCc1cc(C)[nH]c(=O)c1CNC(=O)c1cc(-c2ccnc(N3CCN(C)CC3)c2)cc2c1cnn2C(C)C`, the CC50 was 6 µM (active).
Turning to `Cc1cc(Nc2ccc(NC(=O)c3ccc(Nc4ccnc5ccccc45)cc3)cc2)nc(N)n1`, the CC50 is 0.4 µM (active).
With `COc1cc2c(NC3CCN(C(C)C)CC3)nc(N3CCC(F)(F)CC3)nc2cc1OCCCN1CCCC1`, the CC50 is 3.1 µM (active).
Next, `NCC1CCC(CNc2nc(NCc3ccccc3OC(F)(F)F)ncc2[N+](=O)[O-])CC1` (stereo not drawn): 9.7 µM (active).
`CCNC(=O)c1noc(-c2cc(Cl)c(O)cc2O)c1-c1ccc(OC)cc1`: the CC50 was 0.1 µM (active).
As for `Cc1nnsc1C(=O)Nc1ccc(-n2nc(C(F)(F)F)cc2C(F)(F)F)cc1`, the CC50 is 9.9 µM (active).
As to `CCCCOc1c(C(=O)c2c(F)cc(C)cc2F)c[nH]c2nncc1-2`, the CC50 was 50 µM (inactive).
On to `CCOC(=O)CCNc1cc(N2CCc3ccccc3CC2)nc(-c2ccccn2)n1`, for which the CC50 was 7.5 µM (active).
For the compound `C=CCN(C)CCCCCCOc1ccc(C(=O)c2ccc(Br)cc2)c(F)c1`, the CC50 is 2.8 µM (active).
Then `N#Cc1ccc(NC(=O)NCc2cnc3scc(-c4ccc(Br)cc4)n23)cc1`, with 35 µM (active); and `CCCc1cc(C)[nH]c(=O)c1CNC(=O)c1cc(-c2ccc(N3CCN(C(C)C)CC3)nc2)cc2c1cnn2C(C)C`, with 2.6 µM (active); and `Cc1cn(CCN2CCN(c3ccccc3-c3cc(C#N)cc(C(=O)NCCCN4CCCC4)c3)CC2)c2ccccc12`, with 1.4 µM (active).
Then `CN(C)c1nc2c(Br)c(Br)c(Br)c(Br)c2[nH]1`, with 50 µM (inactive).
Next, `Oc1cc2c(cc1C(c1ccc(C(F)(F)F)cc1)N1CCOCC1)OCO2` (stereo not drawn): 26 µM (inactive).
For `CC(C)Oc1ccc(-c2c[nH]cc2CN(C)CCN)cc1`, the CC50 was 23.3 µM (inactive).
Next, `O=C(NCCN1CCC(n2c(=O)[nH]c3ccccc32)CC1)c1cc2cc(F)ccc2[nH]1`: 6.4 µM (active); `NC(=O)Nc1sc(-c2ccccc2)cc1C(N)=O`: 7.9 µM (active); `Cc1sc2c(c1C)C(c1ccc(Cl)cc1)=N[C@@H](CC(N)=O)c1nnc(C)n1-2`: 0.3 µM (active).
For `CCC(=O)Nc1cccc(Oc2nc(Nc3ccc(N4CCN(C)CC4)cc3OC)ncc2Cl)c1`, the CC50 was 2.8 µM (active).
On to `O=C(Nc1nc2ccc(NC(=O)C34CC5CC(CC(C5)C3)C4)cc2s1)c1ccccc1`, for which the CC50 is 15 µM (inactive).
With `COc1ccc2c(O[C@@H]3C[C@H]4C(=O)N[C@]5(C(=O)NS(=O)(=O)C6CC6)C[C@H]5/C=C\CCCCN(C)C(=O)[C@@H]4C3)cc(-c3nc(C(C)C)cs3)nc2c1C`, the CC50 was 8.6 µM (active).
Turning to `CCN1CCN(C(=O)Cc2ccc(Nc3ncc(F)c(Nc4ccc(C(=O)Nc5ccccc5Cl)cc4)n3)cc2)CC1`, the CC50 is 1.8 µM (active).
With `COc1cc(C(=O)N2CC[C@@H](O)[C@@H](N)C2)cc2nc(-c3cc4ccccc4n3CC3CC3)n(C)c12`, the CC50 is 6.1 µM (active).
Turning to `OCCn1cc(-c2ccc3c(c2)CC/C3=N\O)c(-c2ccncc2)n1`, the CC50 was 1.1 µM (active).
With `O=C(N[C@H]1CN2CCC1CC2)c1cc2cccc(Cl)c2s1`, the CC50 was 5.9 µM (active).
With `COc1c(Nc2ncc(Cl)c(N[C@H]3[C@@H](C(N)=O)[C@@H]4C=C[C@H]3C4)n2)ccc2c1CC[C@@H](N1CCOCC1)CC2`, the CC50 is 2 µM (active).
With `Cc1cc(O)c(-c2ccc([C@@H](C)CN(C)C)cc2)c2c1[nH]c(=O)c1sccc12`, the CC50 was 0.1 µM (active).
With `COc1ccc(OC2CCN(CCC(=O)Nc3cccc(F)c3)CC2)cc1`, the CC50 is 14.8 µM (inactive).
For `O=C1COc2c(CCNCCN(C(=O)CCNCCc3ccc(Cl)c(Cl)c3)C3CCCCC3)ccc(O)c2N1`, the CC50 was 10.5 µM (active).
Then `NC(=O)c1cnc2[nH]ccc2c1N[C@@H]1[C@@H]2C[C@@H]3C[C@H]1C[C@@](O)(C3)C2`, with 8 µM (active); and `CC1(C)CN2C(CS/C(=N\C3CCCCC3)NC3CCCCC3)=CSC2=N1`, with 6 µM (active).
Next, `CC1(C)N=C(N)N=C(N)N1c1ccc(Br)cc1`: 9.1 µM (inactive); `Oc1ccc2c(c1)CC[C@H](c1ccccc1)[C@@H]2c1ccc(OCCN2CCCC2)cc1`: 2.9 µM (active).
Next, `Nc1nc(NC[C@H]2CC[C@H](CNS(=O)(=O)c3cccc4ccccc34)CC2)nc2ccccc12`: 2 µM (active); `CN1C/C=C\CCOc2cccc(c2)-c2ccnc(n2)Nc2cccc(c2)C1`: < 0.1 µM (active); `Fc1ccc(C(OCCN2CCN(CCCc3ccccc3)CC2)c2ccc(F)cc2)cc1`: 5.7 µM (active).
With `COc1cccc(C(=O)Nc2ncc(Cc3cccc(C(F)(F)F)c3)s2)c1`, the CC50 is 8 µM (active).
Then `CC(=O)NC(c1ccccc1)c1cc(Cl)c2cccnc2c1O` (stereo not drawn), with 1.4 µM (active); and `O=C1c2ccccc2-c2n[nH]c3cccc1c23`, with 6.2 µM (active).
Next, `CC1(C)N=C(N)N=C(N)N1c1cccc(Cl)c1`: 0.9 µM (active).
